According to US8192962B2, “Processes for detecting toxic substances” (Daikin Industries, Ltd., priority 2001, dated 2012):

Tested on: Energy system protein genes
Assay: DNA chip mRNA expression in yeast, energy system protein genes (Table 4)
Type: cell-based, Saccharomyces cerevisiae S288C
How it was run: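 S. cerevisiae S288C grown at 25° C. in YPD to log phase, then exposed 2 h to a toxicant at a growth-inhibiting, non-lethal concentration; untreated cells as control. Poly(A) mRNA reverse-transcribed with Cy3-dUTP or Cy5-dUTP, hybridized >12 h at 65° C. to whole-genome yeast DNA chip; value = fluorescence ratio treated/untreated.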

Which results are given for Oc1cc(Cl)c(Cl)cc1Cl [(6), 2,4,5-trichlorophenol]?
The level of expressed mRNA in the presence of chemical substance/The level of expressed mRNA in the absence of chemical substance (yeast gene YAL060W): 4.2; The level of expressed mRNA in the presence of chemical substance/The level of expressed mRNA in the absence of chemical substance (yeast gene YBL058W, cells incubated two hours with the chemical substance): 0.9; The level of expressed mRNA in the presence of chemical substance/The level of expressed mRNA in the absence of chemical substance (yeast gene YBL099W, cells incubated two hours with the chemical substance): 0.9; The level of expressed mRNA in the presence of chemical substance/The level of expressed mRNA in the absence of chemical substance (yeast gene YBR001C, cells incubated two hours with the chemical substance): 1.1; The level of expressed mRNA in the presence of chemical substance/The level of expressed mRNA in the absence of chemical substance (yeast gene YBR126C): 2.9; The level of expressed mRNA in the presence of chemical substance/The level of expressed mRNA in the absence of chemical substance (yeast gene YBR185C, cells incubated two hours with the chemical substance): 1.2; The level of expressed mRNA in the presence of chemical substance/The level of expressed mRNA in the absence of chemical substance (yeast gene YBR221C, cells incubated two hours with the chemical substance): 1.7; The level of expressed mRNA in the presence of chemical substance/The level of expressed mRNA in the absence of chemical substance (yeast gene YCL040W): 3.5; The level of expressed mRNA in the presence of chemical substance/The level of expressed mRNA in the absence of chemical substance (yeast gene YCR012W): 2.5; The level of expressed mRNA in the presence of chemical substance/The level of expressed mRNA in the absence of chemical substance (yeast gene YCR046C, cells incubated two hours with the chemical substance): 0.8; The level of expressed mRNA in the presence of chemical substance/The level of expressed mRNA in the absence of chemical substance (yeast gene YCR105W, cells incubated two hours with the chemical substance): 1.0; The level of expressed mRNA in the presence of chemical substance/The level of expressed mRNA in the absence of chemical substance (yeast gene YDL021W): 6.5; The level of expressed mRNA in the presence of chemical substance/The level of expressed mRNA in the absence of chemical substance (yeast gene YDL067C, cells incubated two hours with the chemical substance): 0.9; The level of expressed mRNA in the presence of chemical substance/The level of expressed mRNA in the absence of chemical substance (yeast gene YDL078C, cells incubated two hours with the chemical substance): 1.1; The level of expressed mRNA in the presence of chemical substance/The level of expressed mRNA in the absence of chemical substance (yeast gene YDL107W, cells incubated two hours with the chemical substance): 1.3; The level of expressed mRNA in the presence of chemical substance/The level of expressed mRNA in the absence of chemical substance (yeast gene YDL174C): 1.7; The level of expressed mRNA in the presence of chemical substance/The level of expressed mRNA in the absence of chemical substance (yeast gene YDL181W, cells incubated two hours with the chemical substance): 1.2; The level of expressed mRNA in the presence of chemical substance/The level of expressed mRNA in the absence of chemical substance (yeast gene YDR001C): 2.2; The level of expressed mRNA in the presence of chemical substance/The level of expressed mRNA in the absence of chemical substance (yeast gene YDR050C, cells incubated two hours with the chemical substance): 1.7; The level of expressed mRNA in the presence of chemical substance/The level of expressed mRNA in the absence of chemical substance (yeast gene YDR079W, cells incubated two hours with the chemical substance): 1.7; The level of expressed mRNA in the presence of chemical substance/The level of expressed mRNA in the absence of chemical substance (yeast gene YDR178W, cells incubated two hours with the chemical substance): 2.1; The level of expressed mRNA in the presence of chemical substance/The level of expressed mRNA in the absence of chemical substance (yeast gene YDR231C): 2.2; The level of expressed mRNA in the presence of chemical substance/The level of expressed mRNA in the absence of chemical substance (yeast gene YDR298C, cells incubated two hours with the chemical substance): 1.2; The level of expressed mRNA in the presence of chemical substance/The level of expressed mRNA in the absence of chemical substance (yeast gene YDR377W, cells incubated two hours with the chemical substance): 1.3; The level of expressed mRNA in the presence of chemical substance/The level of expressed mRNA in the absence of chemical substance (yeast gene YDR529C, cells incubated two hours with the chemical substance): 0.8; The level of expressed mRNA in the presence of chemical substance/The level of expressed mRNA in the absence of chemical substance (yeast gene YEL024W, cells incubated two hours with the chemical substance): 1.1; The level of expressed mRNA in the presence of chemical substance/The level of expressed mRNA in the absence of chemical substance (yeast gene YEL039C, cells incubated two hours with the chemical substance): 1.5; The level of expressed mRNA in the presence of chemical substance/The level of expressed mRNA in the absence of chemical substance (yeast gene YER178W): 2.5; The level of expressed mRNA in the presence of chemical substance/The level of expressed mRNA in the absence of chemical substance (yeast gene YFL057C): 1.2; The level of expressed mRNA in the presence of chemical substance/The level of expressed mRNA in the absence of chemical substance (yeast gene YFR015C): 3.0; The level of expressed mRNA in the presence of chemical substance/The level of expressed mRNA in the absence of chemical substance (yeast gene YFR053C): 3.2; The level of expressed mRNA in the presence of chemical substance/The level of expressed mRNA in the absence of chemical substance (yeast gene YGL018C, cells incubated two hours with the chemical substance): 0.4; The level of expressed mRNA in the presence of chemical substance/The level of expressed mRNA in the absence of chemical substance (yeast gene YGL062W): 1.0; The level of expressed mRNA in the presence of chemical substance/The level of expressed mRNA in the absence of chemical substance (yeast gene YGL187C, cells incubated two hours with the chemical substance): 1.1; The level of expressed mRNA in the presence of chemical substance/The level of expressed mRNA in the absence of chemical substance (yeast gene YGL191W, cells incubated two hours with the chemical substance): 1.6; The level of expressed mRNA in the presence of chemical substance/The level of expressed mRNA in the absence of chemical substance (yeast gene YGL205W, cells incubated two hours with the chemical substance): 1.6; The level of expressed mRNA in the presence of chemical substance/The level of expressed mRNA in the absence of chemical substance (yeast gene YGL256W, cells incubated two hours with the chemical substance): 0.7; The level of expressed mRNA in the presence of chemical substance/The level of expressed mRNA in the absence of chemical substance (yeast gene YGR008C): 2.9; The level of expressed mRNA in the presence of chemical substance/The level of expressed mRNA in the absence of chemical substance (yeast gene YGR043C): 16.3; The level of expressed mRNA in the presence of chemical substance/The level of expressed mRNA in the absence of chemical substance (yeast gene YGR062C, cells incubated two hours with the chemical substance, 25° C., YPD medium): 0.9; The level of expressed mRNA in the presence of chemical substance/The level of expressed mRNA in the absence of chemical substance (yeast gene YGR087C, cells incubated two hours with the chemical substance): 1.1; The level of expressed mRNA in the presence of chemical substance/The level of expressed mRNA in the absence of chemical substance (yeast gene YGR174C, cells incubated two hours with the chemical substance): 1.4; The level of expressed mRNA in the presence of chemical substance/The level of expressed mRNA in the absence of chemical substance (yeast gene YGR192C): 1.7; The level of expressed mRNA in the presence of chemical substance/The level of expressed mRNA in the absence of chemical substance (yeast gene YGR207C): 2.8; The level of expressed mRNA in the presence of chemical substance/The level of expressed mRNA in the absence of chemical substance (yeast gene YGR244C): 2.6; The level of expressed mRNA in the presence of chemical substance/The level of expressed mRNA in the absence of chemical substance (yeast gene YGR254W): 1.9; The level of expressed mRNA in the presence of chemical substance/The level of expressed mRNA in the absence of chemical substance (yeast gene YGR256W): 6.2; The level of expressed mRNA in the presence of chemical substance/The level of expressed mRNA in the absence of chemical substance (yeast gene YHL008C): 0.8; The level of expressed mRNA in the presence of chemical substance/The level of expressed mRNA in the absence of chemical substance (yeast gene YHR174W): 1.5; The level of expressed mRNA in the presence of chemical substance/The level of expressed mRNA in the absence of chemical substance (yeast gene YHR179W): 3.7; The level of expressed mRNA in the presence of chemical substance/The level of expressed mRNA in the absence of chemical substance (yeast gene YIL045W): 1.7; The level of expressed mRNA in the presence of chemical substance/The level of expressed mRNA in the absence of chemical substance (yeast gene YIL111W): 2.6; The level of expressed mRNA in the presence of chemical substance/The level of expressed mRNA in the absence of chemical substance (yeast gene YIL160C): 1.6; The level of expressed mRNA in the presence of chemical substance/The level of expressed mRNA in the absence of chemical substance (yeast gene YIR031C, cells incubated two hours with the chemical substance): 1.7; The level of expressed mRNA in the presence of chemical substance/The level of expressed mRNA in the absence of chemical substance (yeast gene YJL052W): 2.4; The level of expressed mRNA in the presence of chemical substance/The level of expressed mRNA in the absence of chemical substance (yeast gene YJL121C, cells incubated two hours with the chemical substance): 1.1; The level of expressed mRNA in the presence of chemical substance/The level of expressed mRNA in the absence of chemical substance (yeast gene YJL166W, cells incubated two hours with the chemical substance): 0.7; The level of expressed mRNA in the presence of chemical substance/The level of expressed mRNA in the absence of chemical substance (yeast gene YJR009C): 1.6
